The results in this text go back to US8957103B2, “Conjugated 3-(indolyl)- and 3-(azaindolyl)-4-arylmaleimide compounds and their use in tumor treatment” (Johannes Gutenberg—Universitat Mainz, priority 2010, dated 2015).

For orientation: IC50 means the concentration at which inhibition is half-maximal. A word on the viability: it is a read-out of living cells in per cent, often relative to untreated cells.

One data set has as its target FLT-3 (Homo sapiens (Human), UniProt P36888). As to the kind of experiment: FLT-3 kinase assay (Millipore IC50Profiler). The class given is biochemical. On the procedure:
(§1) GSK-3β, VEGFR-2, FLT-3, Kinase Assays
(§2) The effect of test compounds on the activity of the protein kinases GSK-3β, VEGFR-2 and FLT-3 was evaluated based on half maximal inhibitory concentration (IC50) values determined by Millipore UK Ltd; Gemini Crescent; Dundee Technology Park; Dundee DD2 1SW; UK (IC50Profiler). Detailed protocols can be found at: www.millipore.com/drugdiscovery/dd3/assayprotocols.
(§3) The inhibitory effect of test compounds on protein kinases VEGFR-2, FLT-3 and GSK-3β was investigated using respective kinase inhibition assays (method described above) and the values of half maximal inhibitory concentration (IC50) were determined from the assay results. […] Thus, compounds with selective kinase profiles were identified, which may allow application specific for a certain tumor or condition while showing less side-effects caused by activity against other kinases.

For a further data set, the target named is VEGFR-2 (Homo sapiens (Human), UniProt P35968). The experiment in a line: VEGFR-2 kinase assay (Millipore IC50Profiler). The class given is biochemical.
VEGFR-2, sequence (P35968 20-1356): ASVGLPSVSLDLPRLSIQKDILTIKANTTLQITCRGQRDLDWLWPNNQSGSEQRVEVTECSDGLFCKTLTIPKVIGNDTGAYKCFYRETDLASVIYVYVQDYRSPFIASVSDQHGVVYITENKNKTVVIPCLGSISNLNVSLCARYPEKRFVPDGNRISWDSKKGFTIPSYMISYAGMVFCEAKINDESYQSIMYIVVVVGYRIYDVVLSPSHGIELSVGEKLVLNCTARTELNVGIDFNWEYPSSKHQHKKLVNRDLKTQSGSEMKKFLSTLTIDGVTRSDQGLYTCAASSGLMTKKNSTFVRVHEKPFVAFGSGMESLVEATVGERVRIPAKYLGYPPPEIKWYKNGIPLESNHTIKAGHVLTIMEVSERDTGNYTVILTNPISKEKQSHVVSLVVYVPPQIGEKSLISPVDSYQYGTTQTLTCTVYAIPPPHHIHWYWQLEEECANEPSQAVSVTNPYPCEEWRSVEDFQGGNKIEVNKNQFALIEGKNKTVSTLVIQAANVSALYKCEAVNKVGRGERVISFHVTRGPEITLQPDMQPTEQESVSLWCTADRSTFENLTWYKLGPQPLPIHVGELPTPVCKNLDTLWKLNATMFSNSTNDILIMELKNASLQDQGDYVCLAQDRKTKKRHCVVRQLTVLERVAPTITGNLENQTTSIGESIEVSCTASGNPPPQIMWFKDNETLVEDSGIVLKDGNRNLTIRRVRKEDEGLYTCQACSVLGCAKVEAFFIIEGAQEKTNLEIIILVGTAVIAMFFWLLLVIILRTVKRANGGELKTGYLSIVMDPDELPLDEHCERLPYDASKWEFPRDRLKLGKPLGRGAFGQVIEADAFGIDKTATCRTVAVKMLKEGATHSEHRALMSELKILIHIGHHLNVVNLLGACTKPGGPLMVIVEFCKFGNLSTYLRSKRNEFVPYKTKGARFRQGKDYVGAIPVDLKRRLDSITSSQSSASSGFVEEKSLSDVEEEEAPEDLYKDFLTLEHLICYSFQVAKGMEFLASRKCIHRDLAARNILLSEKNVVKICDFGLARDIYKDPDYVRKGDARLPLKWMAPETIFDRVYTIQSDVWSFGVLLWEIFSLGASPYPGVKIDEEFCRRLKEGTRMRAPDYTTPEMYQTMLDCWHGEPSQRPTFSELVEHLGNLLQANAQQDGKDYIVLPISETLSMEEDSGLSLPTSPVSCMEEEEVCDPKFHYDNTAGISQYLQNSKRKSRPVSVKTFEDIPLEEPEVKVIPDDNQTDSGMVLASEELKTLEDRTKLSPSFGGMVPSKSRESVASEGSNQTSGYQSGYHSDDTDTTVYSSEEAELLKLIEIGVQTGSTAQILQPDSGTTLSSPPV
From the text: as §1
Detailed protocols can be found at: www.millipore.com/drugdiscovery/dd3/assayprotocols.

For data set [1], the system named is HT-29 human colon adenocarcinoma cells. The experiment in a line: MTT assay, antiproliferative effect. To be noted: HT-29, 72 h, 3 days, read-out: Viability of HT-29 cells as determined by MTT assay. The class given is cell-based. On the procedure:
Evaluation of Antiproliferative Effect (MTT Assay)
The antiproliferative activity of test compounds was determined by the 3-(4,5-dimethylthiazol-2-yl)-2,5-diphenyltetrazolium bromide (MTT) assay as described previously (Mosmann, T. et al. (1983) J. Immunol. Methods 65: 55-63). Cells in the exponential growth phase were transferred to 96-well flat-bottomed plates. 10,000 viable cells contained in 200 μl cell suspension were plated into each well and incubated over night. Cells were then exposed to various concentrations of test compounds (100 μl/well) for 3 days at 37° C. with 5% CO2. Subsequently, 10 μl/well MTT stock solution (5 mg/ml; Biomol, Germany) were added and the cells were incubated at 37° C. with 5% CO2 for 4 hours. 100 μl solubilization solution (10% SDS in 0.01 M HCl) were added and the cells were incubated at 37° C. with 5% CO2 over night. Plates were read on an ELISA-Reader ELX 800 (BIO-TEK Software KC 4) at 562 nm absorbance. Each experiment was done in triplicate.
(§4) Working solutions of 26 mM test compound in DMSO were prepared and stored in aliquots at −20° C. A 29.6 mM stock solution of irinotecan in water was prepared and stored in aliquots at 4° C. The drugs were diluted in culture medium immediately before use to obtain the desired concentrations.
(§5) The human colon cancer cell line HT-29 was obtained from the DSMZ, Germany. […] cells were cultured in RPMI 1640 supplemented with 10% FCS at 37° C. and 5% CO2.
The antitumor activity of test compounds was examined against HT-29 human colon adenocarcinoma cells using MTT assay (method described above).
On the technique in general: Formazan colour is commonly taken as a measure of viable cells.

A further data set deals with GSK-3β (Homo sapiens (Human), UniProt P49841). The experiment in a line: GSK-3β kinase assay (Millipore IC50Profiler). The class given is biochemical. On the procedure: as §1, §2, §3
GSK-3β, sequence (P49841 whole entry): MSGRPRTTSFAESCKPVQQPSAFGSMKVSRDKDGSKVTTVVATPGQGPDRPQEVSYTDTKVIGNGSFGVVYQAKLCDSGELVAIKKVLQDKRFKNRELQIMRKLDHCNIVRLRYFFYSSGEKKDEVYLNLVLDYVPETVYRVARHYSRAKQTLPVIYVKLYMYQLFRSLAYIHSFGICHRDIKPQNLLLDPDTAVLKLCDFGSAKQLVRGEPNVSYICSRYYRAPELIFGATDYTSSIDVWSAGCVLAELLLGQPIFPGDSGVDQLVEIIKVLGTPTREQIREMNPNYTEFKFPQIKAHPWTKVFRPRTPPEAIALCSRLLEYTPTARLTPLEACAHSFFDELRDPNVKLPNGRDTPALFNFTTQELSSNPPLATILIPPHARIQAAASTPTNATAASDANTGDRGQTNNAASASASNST
Another data set concerns HT-29 cells. As to the kind of experiment: Nicoletti apoptosis assay by cell cycle analysis (sub-G1 fraction). Type of data set: cell-based, human. To be noted: 7 days. As to the method:
Nicoletti Apoptosis Assay by Cell Cycle Analysis
Cancer cells were transferred to 12-well flat-bottomed plates. 1.5×10^5 viable cells contained in 1 ml cell suspension were plated into each well and incubated over night before exposure with various concentrations of drugs. Subsequently, cells were incubated in 1 ml medium containing various concentrations of test compounds at 37° C. with 5% CO2. After incubation the cells were washed with PBS, trypsinized, pelleted and mixed with PI buffer (containing 0.1% sodium citrate, 0.1% triton X-100, […] propidium iodide (PI)) and incubated for 1 hour at 4° C. Cell cycle sub-G1 fraction analysis was performed as described previously (Nicoletti, I. et al. (1991) J. Immunol. Methods 139: 271-279) using a flow cytometer (BD FACS Calibur™, BD Biosciences, Heidelberg, Germany). Each experiment was done in triplicate.
as §4, §5
Compounds of the invention (test compounds) and the topoisomerase I inhibitor irinotecan were analyzed for their individual and combined effect in apoptosis assay (method described above). Induction of apoptosis was determined by cell cycle analysis (% sub-G1 fraction) after incubating HT-29 cells with test compounds, irinotecan or combinations thereof, respectively, for 7 days.

Data set [2] can be described thus: In vitro hepatic microsome stability. The class given is in vitro ADME. To be noted: rat liver microsomes in Tris buffer. On the procedure: Metabolic conversion was evaluated by incubating compounds of the invention (test compounds) with rat liver microsomes (BD Biosciences) in Tris buffer.
In general terms: Liver microsomes are a subcellular fraction often used to study metabolism.

[3] abbreviates: 8 μM test compound plus 1.18 μM irinotecan.

A value given as a limit tells only on which side of the number the result lay.

FLT-3, sequence (P36888 27-993): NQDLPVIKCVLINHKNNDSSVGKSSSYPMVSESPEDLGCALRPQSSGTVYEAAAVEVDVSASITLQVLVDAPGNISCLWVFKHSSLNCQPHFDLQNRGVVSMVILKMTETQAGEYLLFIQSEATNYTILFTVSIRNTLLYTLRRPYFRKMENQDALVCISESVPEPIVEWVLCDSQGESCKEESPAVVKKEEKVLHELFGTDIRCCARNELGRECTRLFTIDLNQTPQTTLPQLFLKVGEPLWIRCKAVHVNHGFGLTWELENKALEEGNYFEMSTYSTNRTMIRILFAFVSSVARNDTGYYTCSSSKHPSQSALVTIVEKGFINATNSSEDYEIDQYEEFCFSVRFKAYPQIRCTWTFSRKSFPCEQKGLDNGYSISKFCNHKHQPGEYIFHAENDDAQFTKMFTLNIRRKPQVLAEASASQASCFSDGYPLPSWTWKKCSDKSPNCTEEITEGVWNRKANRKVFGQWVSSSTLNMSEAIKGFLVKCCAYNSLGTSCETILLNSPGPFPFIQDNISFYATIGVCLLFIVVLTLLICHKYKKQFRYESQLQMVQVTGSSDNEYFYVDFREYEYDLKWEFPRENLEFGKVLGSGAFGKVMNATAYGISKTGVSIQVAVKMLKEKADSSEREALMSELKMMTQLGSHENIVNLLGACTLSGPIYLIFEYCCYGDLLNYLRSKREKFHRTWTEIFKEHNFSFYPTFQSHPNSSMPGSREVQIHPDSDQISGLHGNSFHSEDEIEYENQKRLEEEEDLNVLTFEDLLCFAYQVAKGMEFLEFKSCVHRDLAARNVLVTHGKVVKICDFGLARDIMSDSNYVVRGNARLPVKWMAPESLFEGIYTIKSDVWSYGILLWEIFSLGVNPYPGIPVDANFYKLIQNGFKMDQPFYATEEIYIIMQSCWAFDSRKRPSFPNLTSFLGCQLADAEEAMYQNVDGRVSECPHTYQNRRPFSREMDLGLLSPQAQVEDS

Turning to `COc1cc(C2=C(c3cn(CCCNC(=O)C(N)CC(C)C)c4ccccc34)C(=O)NC2=O)cc(OC)c1OC` (stereo not shown) [Compound A, 2-Amino-N-(3-(3-(2,5-dioxo-4-(3,4,5-trimethoxyphenyl)-2,5-dihydro-1H-pyrrol-3-yl)-1H-indol-1-yl)propyl)-4-methylpentanamide], the IC50 is not below 1000 nM on FLT-3, not below 1000 nM against VEGFR-2 and 208 nM against GSK-3β. Moreover, in data set [1], the viability at 1 µM is 94.9 ± 4.6%. Besides, the viability at 10 µM in data set [1] worked out at 68.7 ± 0.9%. Moreover, the viability at 20 µM in data set [1] was found to be 59.2 ± 5.4%. Besides, the viability at 50 µM in data set [1] came to 26 ± 8.9%. Also, the results for the “Sub-G1 Fraction” value with HT-29 cells (8 μM test compound only) and in the data set on HT-29 cells (setting [3]) were 7.4 ± 0.5% and 38.9 ± 2.8%, respectively.

As to `COc1cc(C2=C(c3cn(CCCO)c4ccccc34)C(=O)NC2=O)cc(OC)c1OC` [Compound C1, 3-(1-(3-hydroxypropyl)indol-3-yl)-4-(3,4,5-trimethoxyphenyl)-1H-pyrrole-2,5-dione], the values for the IC50 against FLT-3 and on GSK-3β were 556 nM and 2250 nM, respectively. The “Metabolic conversion (degradation, metabolite formed)” value (from here on “Metabolic conversion”) in data set [2] was “gave its metabolite Z1”.

`COc1cc(C2=C(c3cn(CCCOC(=O)C(N)CC(C)C)c4ccccc34)C(=O)NC2=O)cc(OC)c1OC` (stereo not shown) [Compound C, 3-(3-(2,5-Dioxo-4-(3,4,5-trimethoxyphenyl)-2,5-dihydro-1H-pyrrol-3-yl)-1H-indol-1-yl)propyl 2-amino-4-methylpentanoate]: the results for the IC50 against FLT-3, at VEGFR-2 and at GSK-3β were 480 nM, not below 1000 nM and 134 nM, respectively. The “Metabolic conversion” value in data set [2] is given as “time dependent degradation”. For the same compound, the viability at 1 µM in data set [1] is 96.7 ± 3.3%. In addition, the viability at 10 µM in data set [1] worked out at 49.3 ± 1.1%. Moreover, the viability at 20 µM in data set [1] worked out at 51 ± 2.3%. The figures for the “Sub-G1 Fraction” value with HT-29 cells (8 μM test compound only) and in the data set on HT-29 cells (setting [3]) were 6.6 ± 0.4% and 39.2 ± 0.7%, respectively.

Take `COc1cc(C2=C(c3cn(CCCO)c4ccccc34)C(=O)NC2=O)cc(OC)c1OC` [Compound D1, 3-(1-(3-hydroxypropyl)indol-3-yl)-4-(3,4,5-trimethoxyphenyl)-1H-pyrrole-2,5-dione]: the “Metabolic conversion” value in data set [2] is given as “upon further degradation gave compound Z1”.

In the case of `COc1cc(C2=C(c3cn(CCOC(=O)C(N)CC(C)C)c4ccccc34)C(=O)NC2=O)cc(OC)c1OC` (stereo not shown) [Compound D, 2-(3-(2,5-Dioxo-4-(3,4,5-trimethoxyphenyl)-2,5-dihydro-1H-pyrrol-3-yl)-1H-indol-1-yl)ethyl 2-amino-4-methylpentanoate], half-maximal inhibition against FLT-3 (IC50) required 239 nM. This compound returned an IC50 against VEGFR-2 of 251 nM. For the same compound, the “Metabolic conversion” value in data set [2] was “yield metabolite D1”. In data set [1], the viability at 1 µM amounted to 104 ± 6.4%, the viability at 10 µM came out at 99.4 ± 8.3%, the viability at 20 µM is 94.5 ± 8.3% and the viability at 50 µM came out at 65.3 ± 3.3%. This compound also gave an IC50 on GSK-3β of 12 nM. The “Sub-G1 Fraction” value in the data set with HT-29 cells (8 μM test compound only) was determined as 6.2 ± 0.8%. Moreover, in the data set on HT-29 cells (setting [3]), the “Sub-G1 Fraction” value worked out at 44.5 ± 1.5%.

Take `COc1cc(C2=C(c3c[nH]c4ccccc34)C(=O)NC2=O)cc(OC)c1OC` [Compound Z1, 3-(1-H-indol-3-yl)-4-(3,4,5-trimethoxyphenyl)-1H-pyrrole-2,5-dione]: the figures for the half-maximal inhibitory concentration (IC50) on FLT-3, at VEGFR-2 and on GSK-3β were 270 nM, 90 nM and more than 1000 nM, respectively. In addition, the “Metabolic conversion” value in data set [2] was “metabolized to form metabolite Z2”.

For `CCc1c2c(nc3ccc(OC(=O)N4CCC(N5CCCCC5)CC4)cc13)-c1cc3c(c(=O)n1C2)COC(=O)[C@]3(O)CC` [irinotecan, reference compound], in the data set on HT-29 cells (1.18 μM irinotecan only), the “Sub-G1 Fraction” value was found to be 26.1 ± 2.1%.
